Assay results taken from PubChem BioAssay (NCI).
Several values for one entry are separate records, joined by “and”; a condition that tells them apart may be missing. Identical values can stand only once.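 Method: 48-hour compound exposure of cells in 96-well plates, five concentrations, linear interpolation of endpoints. The concentration for 50% growth inhibition is given as GI50. TGI: total growth inhibition.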

Columns and labels:
Experiment in all cases: inhibition of tumour cell growth, NCI panel, 48 h
SK-OV-3 ovarian = system: SK-OV-3 ovarian
M14 melanoma = system: M14 melanoma
M19-MEL melanoma = system: M19-MEL melanoma
CAKI-1 renal = system: CAKI-1 renal
DLD-1 colon = system: DLD-1 colon
HCC-2998 colon = system: HCC-2998 colon
K-562 leukemia = system: K-562 leukemia
SK-MEL-5 melanoma = system: SK-MEL-5 melanoma
UACC-257 melanoma = system: UACC-257 melanoma
NCI/ADR-RES ovarian = system: NCI/ADR-RES ovarian

Compound | TGI (SK-OV-3 ovarian) | TGI (M14 melanoma) | TGI (M19-MEL melanoma) | TGI (CAKI-1 renal) | TGI (DLD-1 colon) | TGI (HCC-2998 colon) | TGI (K-562 leukemia) | TGI (SK-MEL-5 melanoma) | TGI (UACC-257 melanoma) | GI50 (SK-OV-3 ovarian) | GI50 (M14 melanoma) | GI50 (CAKI-1 renal) | GI50 (NCI/ADR-RES ovarian) | TGI (NCI/ADR-RES ovarian) | GI50 (HCC-2998 colon) | GI50 (K-562 leukemia) | GI50 (SK-MEL-5 melanoma) | GI50 (UACC-257 melanoma)
Nc1nc(=S)c2c(ncn2CCO)[nH]1 | > 100 µM | > 100 µM | > 100 µM | > 100 µM | > 100 µM | > 100 µM | > 100 µM | > 100 µM | > 100 µM | – | – | – | – | – | – | – | – | –
O=[N+]([O-])c1ccc(-c2ccc(C3=Nn4c(CNc5ccccc5Cl)nnc4SC3)o2)cc1 | > 100 µM | > 100 µM | > 100 µM | > 100 µM | > 100 µM | > 100 µM | > 100 µM | – | > 100 µM | – | – | – | – | – | – | – | – | –
CC(=O)Nc1ccc(C2CC(c3ccc([N+](=O)[O-])cc3)=Nc3ccccc3S2=O)cc1 (stereo not given) | 70.5 µM | > 100 µM | 38 µM | – | 34.5 µM | 30.5 µM | 23.1 µM | 48.4 µM | 95.3 µM | – | – | – | – | – | – | – | – | –
CCOC(=O)C1=C(NC)OCC1=O | > 100 µM | > 100 µM | > 100 µM | > 100 µM | – | > 100 µM | > 100 µM | > 100 µM | > 100 µM | – | – | – | – | – | – | – | – | –
CNCc1ccc(-c2cc(-c3nc(-c4ccc(S(=O)(=O)C(C)C)cc4)cnc3N)on2)cc1 | 24.7 µM | 2.6 µM | – | 21.1 µM | – | 19.6 µM | 3.61 µM | 12.3 µM | 9.35 µM | 6.57 µM | 1.18 µM | 2.71 µM | 3.08 µM | > 74.4 µM | 2.48 µM | 1.05 µM | 2.59 µM | 3.05 µM
COc1cc2nnc3c4cccnc4[nH]c3c2cc1OC | 36 µM and 9.24 µM | 27.4 µM and 3.49 µM | – | – | – | 13.6 µM and 3.79 µM | 50 µM | 21.2 µM and 22.2 µM | 50 µM and 27.7 µM | 8.47 µM and 2.29 µM | 8.18 µM and 1.79 µM | 1.17 µM and 0.184 µM | 2.19 µM | 50 µM | 2.28 µM and 1.95 µM | 0.577 µM | 8.57 µM and 7.33 µM | 9.13 µM and 3.32 µM
O=C1N[C@@H]2CCCC[C@@H]2C12CCCCC2 | > 100 µM | > 100 µM | > 100 µM | – | > 100 µM | > 100 µM | > 100 µM | – | > 100 µM | – | – | – | – | – | – | – | – | –
CCN(CC)c1ccc2nc3ccc(=[N+](CC)CC)cc-3oc2c1 | 4.75 µM | 1.71 µM | – | > 31.8 µM | – | 39.4 µM | > 100 µM | 1.17 µM | 0.654 µM | 0.671 µM | 0.0903 µM | 2.71 µM | 6.52 µM | > 73.3 µM | 0.395 µM | 0.174 µM | 0.162 µM | 0.0457 µM
O=C1c2ccccc2C(=O)c2c(NC3CCCCC3)ccc(Nc3ccc(S(=O)(=O)O)cc3)c21 | > 100 µM | > 100 µM | – | > 100 µM | – | 71.1 µM | > 100 µM | > 100 µM | 63.7 µM | – | – | – | – | > 100 µM | – | – | – | –
CN(C)c1ccc(-c2cc(-c3ccc(Nc4nc(Nc5ccc(Cl)cc5)nc(Nc5ccc(Cl)cc5)n4)cc3)nc(N)c2C#N)cc1 | > 100 µM | > 100 µM | – | > 100 µM | – | > 100 µM | > 100 µM | > 100 µM | > 100 µM | > 100 µM | 18.3 µM | > 100 µM | > 100 µM | > 100 µM | 99.4 µM | 5.2 µM | 4.56 µM | 12.3 µM
CCOC(=O)/C(=C\c1cccc(C)c1)C(C)=O | > 100 µM | 44.3 µM | – | 98.8 µM | – | 28.4 µM | > 100 µM | 32 µM | 35.1 µM | – | – | – | – | 79.5 µM | – | – | – | –
CCC(c1ccccc1)c1noc(CCN(CC)CC)n1 (stereo not given) | > 100 µM | > 100 µM | – | 6.39 µM | – | > 100 µM | > 100 µM | > 100 µM | > 100 µM | > 100 µM | 28.8 µM | 2.18 µM | 39.1 µM | > 100 µM | 50.1 µM | 25.8 µM | 31.1 µM | > 51.2 µM
ClCCOCCn1cnc2c(Cl)nc(Cl)nc21 | 29.8 µM | 27.9 µM | – | 13.5 µM | – | 2.88 µM | > 100 µM | 25.5 µM | 28.5 µM | 16.2 µM | 13.4 µM | 2.61 µM | 17.9 µM | 41.4 µM | 1.42 µM | 15.9 µM | 12.5 µM | 14.1 µM
O=C(NCCc1ccccc1)C1C(=O)C(=O)N(CCc2ccccc2)C1=O (stereo not given) | > 100 µM | > 100 µM | > 100 µM | > 100 µM | > 100 µM | – | > 100 µM | – | > 100 µM | – | – | – | – | – | – | – | – | –
Cc1ccccc1C(CCCO)C(=O)O (stereo not given) | > 100 µM | > 100 µM | > 100 µM | > 100 µM | > 100 µM | – | > 100 µM | > 100 µM | > 100 µM | – | – | – | – | – | – | – | – | –
CCCC(=O)CC(C)C(=O)C(=O)NC12CC3CC(CC(C3)C1)C2 (stereo not given) | – | > 100 µM | – | > 100 µM | > 100 µM | > 100 µM | > 100 µM | > 100 µM | > 100 µM | – | – | – | – | – | – | – | – | –
COc1ccc(-c2nc3ccc(Cc4ccc5nc(-c6ccc(OC)cc6)[nH]c5c4)cc3[nH]2)cc1 | 1.89 µM | 0.111 µM | – | 1.84 µM | – | 0.188 µM | 0.159 µM | 1.27 µM | 3.31 µM | 0.0314 µM | < 0.01 µM | 0.0509 µM | 0.0354 µM | 1.84 µM | 0.027 µM | < 0.01 µM | 0.0193 µM | 1.5 µM
N#Cc1ccc(Sc2nc3ccccc3[nH]2)cc1 | > 100 µM | – | > 100 µM | > 100 µM | > 100 µM | – | > 100 µM | > 100 µM | > 100 µM | – | – | – | – | – | – | – | – | –
OC(c1ccccc1Br)(c1ccccc1Br)C(F)(F)F | > 100 µM | > 100 µM | 74 µM | > 100 µM | 97.6 µM | 6.58 µM | – | – | 72.9 µM | – | – | – | – | – | – | – | – | –
CCCCCCCCCCCC[C@@H](O)[C@H]1CC[C@H]([C@H](O)CC[C@H](O)[C@@H]2CC[C@@H](CCCCCCCC3=C[C@H](C)OC3=O)O2)O1 | > 50 µM | > 50 µM | – | > 50 µM | – | > 50 µM | > 50 µM | 7.93 µM and > 50 µM | – | – | 4.99 µM | – | 2.12 µM | > 50 µM | – | 3 µM | 1.3 µM | 0.152 µM
